Columns and labels:
SK-NEP1 human ES cells = assay: metastatic Ewing's Sarcoma mouse model (SK-NEP1 implanted into kidney); assay type: in vivo, athymic mice
Method: FIG. 8A-8B. CNI-1493 decreases primary tumor size and metastatic burden in a metastatic Ewing's Sarcoma mouse model. 10^6 SK-ENP1 cells were implanted into the kidneys of nude mice and intraperitoneal treatment with CNI-1493 (5 mg/kg/day) or vehicle was initiated one week later. After six weeks of treatment, mice were sacrificed and assessed for primary and metastatic tumor burden. […] Metastatic tumor burden was evaluated with hematoxylin and eosin stained tissue sections by microscopy and calculating surface area per tissue section per mouse using ImageJ software (B).
(§1) In vivo, human ES cells (SK-NEP1) were surgically implanted into the left kidney of athymic mice. Mice were treated for 7 weeks with CNI-1493 or vehicle. Lung parenchyma was assessed for metastases utilizing both H&E and immunohistochemistry for the ES-specific CD99 and endothelial-specific CD31 markers. In vitro, primary macrophages isolated from human blood were polarized to M1 or M2 phenotypes by exposure to GM-CSF or M-CSF and activated with IFN-γ and LPS or IL-4. Cells were co-cultured with polarized macrophages and underwent proliferation and invasion assays in the presence or absence of CNI-1493.

microglia = assay: glioblastoma cell-stimulated microglia invasion (transwell); assay type: cell-based, murine; settings: GL261 in bottom well, microglia in BME, 48 h; read-out: IC50 for inhibition of GL261-stimulated microglia invasion
Method: To measure the invasion of microglia toward glioblastoma cells in vitro, a variant of the glioblastoma cell invasion assay was used. First, 15×10^4 G1261 cells were plated in MSFM medium overnight and subsequently were placed in serum free medium. Subsequently, 5×10^4 microglia cells were embedded in 50 μL, of 10 mg/mL BME with or without 200 nM semapimod, placed in a 8 μm transwell (previously coated with 1 μg/mL fibronectin on the bottom side of the 8 μm filter to maintain adhesion of the cells that invaded through the filter) and allowed to polymerize for 30 min at 37° C. The transwell chambers were then placed above the previously plated GL261. After 48 h of incubation, the chambers were fixed in 3.7% formaldehyde in PBS.
The cells were stained with 0.2% crystal violet in 2% ethanol. The remaining BME was carefully removed and the inserts were allowed to dry. Cells attached to the bottom of the filter were imaged as for the invasion assay and the total number of invaded microglia was determined.
Semapimod inhibits glioblastoma-induced microglia invasion in vitro: Microglia extensively infiltrate glial tumors (5-7). […] This stimulatory effect is abolished by semapimod, with an IC50 of approximately 60 nM.

GL261 cells = assay: proliferation assay of GL261 co-cultured with microglia (SRB); assay type: cell-based, murine; settings: 200 nM, 3 days
Method: Proliferation Assay: 50,000 GL261 cells were cultured overnight in the absence or presence or microglia (50,000 or 150,000) in serum-containing medium and subsequently cultured in the presence or absence of 200 nM semapimod in a 6-well dish in serum-free conditions. Microglia were added in a ratio of 1:1 or 1:3 GL261:microglia. After 72 h of incubation, plates were washed in PBS and fixed in 3.7% formaldehyde in PBS. In initial experiments, the microglia were stained with tomato lectin for 45 mins and stained all nuclei with DAPI. Ten fluorescence micrographs of each culture were taken with a Zeiss Axiovert-based imaging system. […] Therefore in subsequent experiments the cells were stained with SRB as described for the colony formation assay. After drying, the plates were de-stained with 500 μL of 10 mM Tris base (Sigma). Eluted SRB was measured by absorbance at 490 nm.

ES cells (SK-NEP1) = assay: proliferation assay of ES cells co-cultured with polarized macrophages; assay type: cell-based, human; settings: co-culture with polarized macrophages
Method: as §1

[1] = test system: SK-NEP1 cells with M2 macrophages; assay: invasion assay of SK-NEP1 co-cultured with polarized primary macrophages; assay type: cell-based, human; settings: co-culture with M2 macrophages, p<0.01
Method: FIG. 7. CNI-1493 inhibits tumor invasion in vitro through in the presence of macrophages. When co-cultured with SK-NEP1, macrophages polarized to express the M2 phenotype induced increased tumor cell invasion. This increase in invasion was reversed when co-cultures were exposed to 200 nM CNI-1493. Error bars represent standard deviation.
as §1

C/C(=N\NC(=N)N)c1cc(NC(=O)CCCCCCCCC(=O)Nc2cc(/C(C)=N/NC(=N)N)cc(/C(C)=N/NC(=N)N)c2)cc(/C(C)=N/NC(=N)N)c1 [semapimod]
primary tumor size (effect in words) (SK-NEP1 human ES cells; intraperitoneal 5 mg/kg/day): significantly reduce
incidence of metastatic disease (SK-NEP1 human ES cells; intraperitoneal 5 mg/kg/day, p=0.055): 21%
lung metastases by immunohistochemistry (SK-NEP1 human ES cells; lung tissue, CD99/CD31): micrometastases confined to the vasculature
overall metastatic tumor burden (SK-NEP1 human ES cells; treated 7 weeks, versus vehicle, p<0.05): significantly decreased
primary tumor size (SK-NEP1 human ES cells; treated 7 weeks, control 7.0±5.2 g, p=0.54, not affected): 5.7 ± 3.3 g
IC50 (microglia): ~60 nM
effect on microglia-stimulated glioblastoma cell proliferation (GL261 cells): does not affect
effect on ES cellular proliferation (ES cells (SK-NEP1)): unaffected
effect on M2 macrophage-enhanced ES cellular invasion [1]: strongly decreased

— patent US9440914B2, “Method for treating glioblastomas and other tumors” (THE FEINSTEIN INSTITUTE FOR MEDICAL RESEARCH, priority 2013, dated 2016)
